# Measured values reported in patent US9623084B2, “Methods for treating multiple sclerosis” (UNIVERSITY OF SOUTHERN CALIFORNIA, priority 2013, dated 2017).
# Legend:
# [1] = test system: MOG-EAE in C57BL/6 mice (chronic progressive model of MS); test: A(1-7) treatment in the chronic progressive MOG-EAE model of MS; format: in vivo; settings: for disease course (clinical scores): vs control non-treated immunized mice, up to 50 days post immunization
# [2] = test system: PLP-EAE in SJL/J mice (relapsing-remitting model of MS); test: A(1-7) treatment in the relapsing-remitting PLP-EAE model of MS; format: in vivo; settings: FIG. 1C
# Excerpt: Multiple Sclerosis (MS) is a chronic autoimmune and neurodegenerative disease of the central nervous system (CNS) that is characterized by focal infiltration of leukocytes, including myelin-specific T cells, into the CNS, resulting destruction of myelin, demyelination, oxidative stress, axonal loss and ultimately, clinical symptoms and neurological disability. Experimental autoimmune encephalomyelitis (EAE) is a well-established animal model of MS that mimics many of the features of MS. We evaluated the ability of angiotensin peptide A(1-7) to modulate EAE disease course. For this study we used two common EAE models to study the efficacy of A(1-7), one that replicates the chronic progressive form of MS and the other that follows a relapsing-remitting course of the disease. Mice were immunized with peptides corresponding to major immunodominant regions of two myelin proteins: myelin oligodendrocyte protein 35-55 (MOG-EAE) immunization in C57BL6 mice to induce a chronic progressive disease, or proteolipid protein 139-151 (PLP-EAE) immunization in SJL/J mice induced a relapsing-remitting disease.
# Female SJL/J mice, 10-weeks-old, were immunized subcutaneously in 4 sites on their flank (approximately 50 μl each) with 120 μg PLP-139-151 peptide emulsified in 200 μl CFA at baseline. Mice were anesthetized (as described for MOG-EAE) for the immunizations. SJL/J mice are highly susceptible to EAE induction by this method and require only one immunization to achieve disease in 90-100% of mice.
# PLP-EAE is a relapsing form of disease in which the first acute attack of neurological symptoms occurs at approximately 10-13 days after immunization, peaks between day 15 and 18, is followed by a period of recovery, or remission for about 10 days. 25-40 days after immunization ˜75% of mice develop a second wave of paralysis (relapse). Relapses are often less severe and of shorter duration than the first attack. PLP-EAE mimics the relapsing-remitting form of MS. […]
# [3] = test system: Normal human progenitor cells (neurosphere cultures); test: A(1-7) treatment in in vitro neurosphere cultures; format: cell-based
# Method: Normal human progenitor cells were purchased from Clonetics (San Diego, Calif.) and cultured in Neural Progenitor Cell Maintenance Medium (NPMM) [Neural Progenitor Basal Medium containing human recombinant fibroblast growth factor-beta, human recombinant epidermal growth factor, neural survival factors, gentamycin and amphotericin B)]. The cells were thawed, diluted into NPMM and cultured for 24 hours in a 75 cm^2 flask. Until studies to assess differentiation, the cells were cultured in dedifferentiated spheroids.
# In order to assess the differentiation of neuronal cells, the cells were seeded upon wells coated with 0.05% polyethyleneimine (PEI) substrate in borate buffer solution. The wells of a 96 well plate were coated with 0.05 ml of this solution overnight at room temperature. After the incubation, the substrate was removed by aspiration, rinsed with sterile water and allowed to dry before seeding of cells. Four days after plating, the number of cells undergoing differentiation, as assessed by neurite outgrowth) was counted
# [4] = treatment started 10 days after immunization, vs control non-treated immunized mice
substance,measurement,setting,value
"Asp-Arg-Val-Tyr-Ile-His-Pro (DRVYIHP) [A(1-7), angiotensin peptide A(1-7)]",disease progression and severity,"[1]; 1 mg/kg/day continuous delivery (Alzet pump) vs control, started day 11, FIG. 3",highly effective at inhibiting disease progression and maintaining reduced severity of the disease
same,restoration from disability,"[1]; 2 mg/kg/day continuous delivery vs control saline treated mice, FIG. 3 and FIG. 4A",promotes restoration from disability
same,clinical disease score,"[1]; all doses, twice daily injection, vs control saline treated mice, started day 11, FIG. 2",improved clinical disease score
same,disease course (clinical scores),"[1]; once daily sc 0.5 mg/kg A(1-7) from day 10, FIG. 1A",less severe disease course
same,"clinical disease score, dose comparison","[1]; twice daily injection, total of 1.2 or 4 mg/kg/day vs 0.5 mg/kg/day, started day 11, FIG. 2",more effective in reducing clinical disease score than 0.5 mg/kg/day
same,disease course (clinical scores),"[1]; twice daily sc 0.5 mg/kg A(1-7) from day 10, FIG. 1B",less severe disease course
same,disease course (disability) with duration of treatment,"[2]; PLP-EAE SJL mice, increasing duration of treatment",improves disease course (less disability) with increasing duration of treatment
same,disease severity,[2]; [4],the disease was less severe
same,onset of disease,[2]; [4],delayed onset of disease
same,neurite outgrowth and proliferation,"[3]; PEI-coated wells, counted four days after plating, increasing doses of A(1-7), FIG. 4",promotes neurite outgrowth and proliferation with increasing doses of A(1-7)
same,number of cells able to undergo differentiation (proliferation),[3]; suspension culture in the presence of A(1-7) for 4-7 days prior to placement on an adherent substrate,an increase in the number of cells able to undergo differentiation (proliferation)
